Reference: PMC6264418, “t-Bu2SiF-Derivatized D2-Receptor Ligands: The First SiFA-Containing Small Molecule Radiotracers for Target-Specific PET-Imaging” (Molecules, 2011)
Like-named read-outs stand apart in the source and are kept apart here.

Columns and labels:
human D2 receptor [1] = molecular target: T1, human D2 receptor (Homo sapiens, UniProt P14416); parameters: method as in PMID 12570798; details: D2-receptor antagonists, literature affinity; cited from earlier work
T1 construct: expressed in transfected cells

human D2 receptor [2] = molecular target: T1, human D2 receptor; assay: [3H]spiperone binding assay, dopamine D2-receptor affinity (HEK293 cells stably expressing D2 receptors)
Description: Source of the dopamine-D2-receptors was cell line HEK293 which expresses the D2 receptors stably. […] All substances were evaluated in 3 independent competition experiments in six concentrations (each in triplicate). The Ki-values were calculated from the IC50-values according to Cheng-Prusoff as described in detail in [23].

[3] = ratio of Ki values at the D2 receptor

T1 sequence (P14416 whole entry): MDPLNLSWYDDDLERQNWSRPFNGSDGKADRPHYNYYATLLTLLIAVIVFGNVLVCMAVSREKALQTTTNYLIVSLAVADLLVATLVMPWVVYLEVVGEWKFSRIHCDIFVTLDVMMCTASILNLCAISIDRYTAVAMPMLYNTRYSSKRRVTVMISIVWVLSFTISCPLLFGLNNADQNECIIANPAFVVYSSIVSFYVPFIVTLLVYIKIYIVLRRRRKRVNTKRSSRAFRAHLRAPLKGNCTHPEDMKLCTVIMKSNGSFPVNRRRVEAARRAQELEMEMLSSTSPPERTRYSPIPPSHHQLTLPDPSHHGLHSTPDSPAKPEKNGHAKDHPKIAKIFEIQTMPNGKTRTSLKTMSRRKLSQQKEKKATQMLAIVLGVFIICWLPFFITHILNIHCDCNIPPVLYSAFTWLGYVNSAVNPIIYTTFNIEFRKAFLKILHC

Compound | D2-receptor affinity range (human D2 receptor [1]) | Ki (human D2 receptor [2]) [nM] | factor by which affinity is reduced compared to raclopride (human D2 receptor [2]; [3]) | factor by which affinity is reduced compared to fallypride (1) (human D2 receptor [2]; [3]) | further results
C=CCN1CCC[C@H]1CNC(=O)c1cc(CCCF)cc(OC)c1OC [Fallypride, fallypride, reference compound] | picomolar |  |  |  | Ki (human D2 receptor [2]; D2-receptor affinity, [3H]spiperone competition, 3 independent experiments, Ki from IC50 by Cheng-Prusoff, read-out: Ki (nM ± SEM)): 0.0965 ± 0.0153 nM
CCN1CCC[C@H]1CNC(=O)c1c(O)c(Cl)cc(Cl)c1OC [Raclopride, raclopride] | nanomolar |  |  |  | 
C=CCN1CCC[C@H]1CNC(=O)c1ccc([Si](F)(C(C)(C)C)C(C)(C)C)cc1 [SiFA-DDMFP, 4c, (S)-N-((1-Allylpyrrolidine-2-yl)methyl)-4-(di-tert-butylfluorosilyl) benzamide] |  | 62.7 ± 16.9 |  |  | 
C=CCN1CCC[C@H]1CNC(=O)c1cc([Si](F)(C(C)(C)C)C(C)(C)C)ccc1OC [SiFA-DMFP, 4a, (S)-N-((1-Allylpyrrolidine-2-yl)methyl)-5-(di-tert-butylfluorosilyl)-2-methoxybenzamide] |  | 13.6 ± 4.3 | 11 |  | factor by which affinity is reduced compared to desmethoxyfallypride (2) (human D2 receptor [2]; [3]): 22
C=CCN1CCC[C@H]1CNC(=O)c1cc([Si](F)(C(C)(C)C)C(C)(C)C)cc(OC)c1OC [SiFA-FP, 4b, (S)-N-((1-Allylpyrrolidine-2-yl)methyl)-5-(di-tert-butylfluorosilyl)-2,3-dimethoxybenzamide] |  | 33 ± 7.6 |  | 342 | 
C=CCN1CCCC1CNC(=O)c1cc(CCCS[C@H]2CC(=O)N(c3ccc([Si](F)(C(C)(C)C)C(C)(C)C)cc3)C2=O)cc(OC)c1OC (stereo partly drawn) [SiFA-M-FP, 5, (S)-N-((1-Allylpyrrolidin-2-yl)methyl)-5-(3-(1-(4-(di-tert-butylfluorosilyl)phenyl)-2,5-dioxopyrrolidin-3-ylthio)propyl)-2,3-dimethoxybenzamide] |  | 4.21 ± 0.41 | 3.5 | 44 | 
